Where a name gives a salt, the structure may show the parent alone. Read-outs that look alike come from different tables or passages of the source. Blank lines part the entries; values can stand above or below the compound they belong to.
Experiments:
MMP-13 [1] = biological target: T1, MMP-13 (Homo sapiens, UniProt P45452); test: In vivo MMP inhibition test procedure (implanted dialysis tubing containing enzyme); set-up: species or system rat or mouse; conditions: p.o. vs MMP-13
MMP-1 [2] = biological target: T2, MMP-1 (Homo sapiens, UniProt P03956); conditions: read-out: MMP-1 IC50
T2 sequence (P03956 100-469): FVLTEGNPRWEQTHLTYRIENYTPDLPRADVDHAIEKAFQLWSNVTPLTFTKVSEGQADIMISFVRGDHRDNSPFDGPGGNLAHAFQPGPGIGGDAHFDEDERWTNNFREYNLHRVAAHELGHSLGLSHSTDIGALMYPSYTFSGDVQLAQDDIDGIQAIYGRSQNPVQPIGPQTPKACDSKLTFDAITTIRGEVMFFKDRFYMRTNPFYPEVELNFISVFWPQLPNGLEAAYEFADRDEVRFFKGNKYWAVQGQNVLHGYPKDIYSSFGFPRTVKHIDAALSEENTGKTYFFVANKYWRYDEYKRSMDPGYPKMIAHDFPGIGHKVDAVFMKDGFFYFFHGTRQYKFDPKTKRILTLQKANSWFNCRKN

MMP-9 = MMP-9 (Homo sapiens, UniProt P14780); test: MMP-9 inhibition (thiopeptide or fluorescent peptide substrate); format: biochemical; conditions: for IC50: read-out: MMP-9 IC50
Sequence of MMP-9 (P14780 94-707): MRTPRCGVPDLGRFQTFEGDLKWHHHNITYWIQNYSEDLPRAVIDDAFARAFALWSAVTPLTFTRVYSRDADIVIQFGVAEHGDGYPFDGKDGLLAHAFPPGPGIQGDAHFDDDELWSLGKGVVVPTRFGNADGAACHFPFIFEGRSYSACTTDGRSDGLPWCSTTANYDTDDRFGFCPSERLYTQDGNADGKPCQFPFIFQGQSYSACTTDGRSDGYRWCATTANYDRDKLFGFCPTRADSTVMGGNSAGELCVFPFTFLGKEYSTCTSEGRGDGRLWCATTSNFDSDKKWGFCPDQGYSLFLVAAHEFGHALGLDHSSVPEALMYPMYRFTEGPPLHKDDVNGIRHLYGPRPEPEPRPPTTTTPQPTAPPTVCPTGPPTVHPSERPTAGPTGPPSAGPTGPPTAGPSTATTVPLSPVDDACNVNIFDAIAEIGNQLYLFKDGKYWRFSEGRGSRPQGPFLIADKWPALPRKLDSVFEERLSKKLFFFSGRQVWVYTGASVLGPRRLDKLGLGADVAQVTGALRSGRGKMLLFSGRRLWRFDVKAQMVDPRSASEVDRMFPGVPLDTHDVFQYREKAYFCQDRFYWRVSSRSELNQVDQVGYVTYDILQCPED

TACE = TACE (Homo sapiens, UniProt P78536); test: TACE inhibition (fluorescent peptidyl substrate); format: biochemical; conditions: for inhibition at 1 µM: at 1 μM concentration, read-out: TACE % inhibition
Sequence of TACE (P78536 215-824): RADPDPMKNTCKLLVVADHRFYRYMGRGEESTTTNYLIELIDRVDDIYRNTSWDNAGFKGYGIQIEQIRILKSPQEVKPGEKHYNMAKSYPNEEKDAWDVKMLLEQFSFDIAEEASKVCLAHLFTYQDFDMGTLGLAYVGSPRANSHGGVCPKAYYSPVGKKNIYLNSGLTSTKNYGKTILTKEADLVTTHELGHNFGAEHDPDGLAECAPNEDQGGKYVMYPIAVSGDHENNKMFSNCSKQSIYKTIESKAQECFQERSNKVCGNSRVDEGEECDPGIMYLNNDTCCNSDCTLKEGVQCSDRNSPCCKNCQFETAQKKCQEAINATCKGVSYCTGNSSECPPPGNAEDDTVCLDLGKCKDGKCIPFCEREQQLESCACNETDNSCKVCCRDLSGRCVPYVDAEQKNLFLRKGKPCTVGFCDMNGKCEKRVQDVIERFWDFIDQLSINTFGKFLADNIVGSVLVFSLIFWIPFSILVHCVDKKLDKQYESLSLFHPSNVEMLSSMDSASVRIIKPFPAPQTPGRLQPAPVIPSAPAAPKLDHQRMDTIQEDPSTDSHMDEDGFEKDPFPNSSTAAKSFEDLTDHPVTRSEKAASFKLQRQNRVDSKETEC

MMP-1 [3] = biological target: T2, MMP-1; test: biochemical; conditions: for IC50: MMP-1 IC50
MMP-13 [4] = biological target: T1, MMP-13; test: MMP-13 inhibition (thiopeptide or fluorescent peptide substrate); format: biochemical

Compound: Cc1noc2ncc(C(=O)NO)c(N(C)S(=O)(=O)c3ccc(Oc4ccncc4)cc3)c12 (as salt: hydrochloride) [Example 94, 4-{Methyl-[4-(4-pyridinyloxy)benzenesulfonyl]amino}-3-methylisoxazolo[5,4-b]pyridine-5-carboxylic acid, Hydroxyamide,]
melting point: 170 °C (dec.)

melting point: 196 to 198 °C
Compound: COc1ccc(S(=O)(=O)N(Cc2cccnc2)c2c(C(=O)NO)cnc3c2c(C)nn3C)cc1 [Example 60, 4-[(4-Methoxybenzenesulfonyl)pyridin-3-ylmethylamino]-1,3-dimethyl-1H-pyrazolo[3,4-b]pyridine-5-carboxylic acid, hydroxyamide]

Compound: CN(c1c(C(=O)NO)cnc2c1c(-c1ccccc1)nn2C)S(=O)(=O)c1ccc(Oc2ccncc2)cc1 (as salt: hydrochloride) [Example 93, 4-{Methyl-[4-(4-pyridinyloxy)benzenesulfonyl]amino}-1-methyl-3-phenyl-1H-pyrazolo[3,4-b]pyridine-5-carboxylic acid, Hydroxyamide]
melting point: 195 °C (dec.)

Compound: 4-{[4-(4-Chlorophenyloxy)benzenesulfonyl]methylamino}-1,3-dimethyl-1H-pyrazolo[3,4-b]pyridine-5-carboxylic Acid, Hydroxyamide [Example 89]
in-vivo MMP % inhibition (MMP-13 [1]; dose 25 mg/kg): 6% (25)
IC50 (MMP-1 [2]): 116 nM
IC50 (MMP-9): 0.8 nM
IC50 (TACE): 356 ± 15 nM

Compound: COc1ccc(S(=O)(=O)N(Cc2ccccc2)c2c(C(=O)NO)cnc3c2c(C)nn3C)cc1 [Example 52, 4-[Benzyl-(4-methoxybenzenesulfonyl)amino]-1,3-dimethyl-1H-pyrazolo[3,4-b]pyridine-5-carboxylic acid, hydroxyamide]
IC50 (MMP-1 [3]): 45 nM
in-vivo MMP % inhibition (MMP-13 [1]; dose 100 mg/kg): 74% (100)
IC50 (MMP-9): 2.4 nM
IC50 (MMP-13 [4]): 1.4 nM
IC50 (TACE): 236 nM

Compound: Cc1nsc2ncc(C(=O)NO)c(N(C)S(=O)(=O)c3ccc(Oc4ccncc4)cc3)c12 [Example 92, 4-{Methyl-[4-(4-pyridinyloxy)benzenesulfonyl]amino}-3-methylisothiazolo[5,4-b]pyridine-5-carboxylic Acid, Hydroxyamide]
inhibition at 10 µM (MMP-1 [3]; read-out: MMP-1 % inhibition): 60.2%
in-vivo MMP % inhibition (MMP-13 [1]; dose 25 mg/kg): 30% (25)
IC50 (MMP-9): 12 nM
melting point: 146 °C (dec.)
IC50 (MMP-13 [4]): 6.1 nM
IC50 (TACE): > 1640 nM

Compound: Cc1nn(C)c2ncc(C(=O)NO)c(N(C)S(=O)(=O)c3ccc(Oc4ccncc4)cc3)c12 (as salt: hydrochloride) [91(HC1), 4-{Methyl-[4-(4-pyridinyloxy)benzenesulfonyl]amino}-1,3-dimethyl-1H-pyrazolo[3,4-b]pyridine-5-carboxylic Acid, Hydroxyamide]
melting point: 147 °C (dec.)

Compound: COc1ccc(S(=O)(=O)N(Cc2ccccc2)c2c(C(=O)NO)cnc3c2c(C)nn3-c2ccccc2)cc1 [Example 66, 4-[Benzyl-(4-methoxybenzenesulfonyl)amino]-1-phenyl-3-methyl-1H-pyrazolo[3,4b]pyridine-5-carboxylic acid, hydroxyamide]
IC50 (MMP-1 [3]): 512 nM
in-vivo MMP % inhibition (MMP-13 [1]; dose 25 mg/kg): 5% (25)
IC50 (MMP-9): 0.81 nM
IC50 (MMP-13 [4]): 0.27 nM

Compound: CN(c1c(C(=O)NO)cnc2c1c(-c1ccccc1)nn2C)S(=O)(=O)c1ccc(Oc2ccncc2)cc1 [Example 93, 4-{Methyl-[4-(4-pyridinyloxy)benzenesulfonyl]amino}-1-methyl-3-phenyl-1H-pyrazolo[3,4-b]pyridine-5-carboxylic acid, Hydroxyamide]
IC50 (MMP-1 [3]): 8790 nM
in-vivo MMP % inhibition (MMP-13 [1]; dose 25 mg/kg): 49% (25)
IC50 (MMP-9): 10.1 nM
IC50 (MMP-13 [4]): 3.9 nM
inhibition at 1 µM (TACE): 34.9%

Compound: COc1ccc(S(=O)(=O)N(Cc2cccnc2)c2c(C(=O)NO)cnc3cc(C(F)(F)F)ccc23)cc1 [Example 16, 4-[(4-Methoxybenzenesulfonyl)-pyridin-3-ylmethylamino]-7-trifluoromethyl-quinoline-3-carboxylic acid hydroxyamide]
in-vivo MMP % inhibition (MMP-13 [1]; dose 100 mg/kg): 64% (100)
IC50 (MMP-9): 6 nM
IC50 (MMP-13 [4]): 3 nM
inhibition at 1 µM (TACE): 36%

Compound: COc1ccc(S(=O)(=O)N(Cc2cccnc2)c2c(C(=O)NO)cnc3c(OC)cccc23)cc1 [Example 36, 4-[(4-Methoxy-benzenesulfonyl)-pyridin-3-ylmethyl-amino]-8-methoxy-quinoline-3-carboxylic acid hydroxyamide]
in-vivo MMP % inhibition (MMP-13 [1]; dose 50 mg/kg): 81% (50)
IC50 (MMP-9): 2 nM
IC50 (MMP-13 [4]): 1 nM
IC50 (TACE): 226 nM

Compound: COc1ccc(S(=O)(=O)N(Cc2cccnc2)c2c(C(=O)NO)cnc3cc(C)nn23)cc1 [Example 88, 7-[(4-Methoxybenzenesulfonyl)pyridin-3-ylmethylamino]-2-methylpyrazolo[1,5-a]pyrimidine-6-carboxylic Acid, Hydroxyamide]
IC50 (MMP-1 [3]): 643 nM
IC50 (MMP-9): 10.4 nM
IC50 (MMP-13 [4]): 18.7 nM
inhibition at 1 µM (TACE): 40.5%

Compound: 4-{Methyl-(4-(pyridin-4-yloxy)-benzenesulfonyl]-amino}-6-iodo-quinoline-3-carboxylic acid hydroxyamide hydrochloride [Example 33]
IC50 (MMP-1 [2]): 1010 nM

Compound: 4-[(4-Methoxy-benzenesulfonyl)-pyridin-3-ylmethyl-amino]-8-thiophen-2-yl-quinoline-3-carboxylic acid hydroxyamide [Example 41]
IC50 (MMP-1 [2]): 136 nM

Compound: 4-[Methyl-(4-methoxy-benzenesulfonyl)-amino]-6-phenylethyl-quinoline-3-carboxylic acid hydroxyamide [Example 35]
IC50 (MMP-1 [2]): 234 nM
IC50 (TACE): 49 nM

Compound: Cc1noc2ncc(C(=O)NO)c(N(C)S(=O)(=O)c3ccc(Oc4ccncc4)cc3)c12 [Example 94, 4-{Methyl-[4-(4-pyridinyloxy)benzenesulfonyl]amino}-3-methylisoxazolo[5,4-b]pyridine-5-carboxylic acid, Hydroxyamide,]
IC50 (MMP-1 [3]): 2550 nM
in-vivo MMP % inhibition (MMP-13 [1]; dose 25 mg/kg): 12% (25)
IC50 (MMP-9): 3 nM
IC50 (MMP-13 [4]): 3.2 nM
inhibition at 1 µM (TACE): 41.6%

Compound: Cc1ccc(S(=O)(=O)N(Cc2cccnc2)c2c(C(=O)NO)cnc3cc(C(F)(F)F)ccc23)cc1 [Example 44, 4-[Pyridin-3-ylmethyl-(toluene-4-sulfonyl)-amino]-7-trifluoromethyl-quinoline-3-carboxylic acid hydroxyamide]
inhibition at 1 µM (MMP-1 [3]; read-out: MMP-1 % inhibition): 65%
inhibition at 1 µM (MMP-9; read-out: MMP-9 % inhibition, at 1 μM concentration): 59%
inhibition at 1 µM (MMP-13 [4]; read-out: MMP-13 % inhibition, at 1 μM concentration): 73%
inhibition at 1 µM (TACE): 5%

Compound: COc1ccc(S(=O)(=O)N(Cc2cccnc2)c2c(C(=O)NO)cnc3cc(C)nn23)cc1 (as salt: salt) [Example 88, 7-[(4-Methoxybenzenesulfonyl)pyridin-3-ylmethylamino]-2-methylpyrazolo[1,5-a]pyrimidine-6-carboxylic Acid, Hydroxyamide]
melting point: 170 °C (dec.)

Compound: COc1ccc(S(=O)(=O)N(Cc2cccnc2)c2c(C(=O)NO)cnc3onc(C)c23)cc1 (as salt: salt) [Example 87, 4-[(4-Methoxybenzenesulfonyl)pyridin-3-ylmethylamino]-3-methylisoxazolo[5,4-b]pyridine-5-carboxylic Acid, Hydroxyamide]
melting point: 212 to 215 °C

Compound: CN(c1c(C(=O)NO)cnc2ccc(I)cc12)S(=O)(=O)c1ccc(Oc2ccncc2)cc1 [Example 32, 4-{Methyl-[4-(pyridin-4-yloxy)-benzenesulfonyl]-amino}-6-iodo-quinoline-3-carboxylic acid hydroxyamide]
IC50 (MMP-1 [3]): 456 nM
IC50 (MMP-9): 1 nM
IC50 (MMP-13 [4]): 1 nM
IC50 (TACE): 24 nM

Compound: 4-{[4-(4-Chlorophenyloxy)benzenesulfonyl]methylamino}-3-methylisothiazolo[5,4-b]pyridine-5-carboxylic Acid Hydroxyamide [Example 90]
in-vivo MMP % inhibition (MMP-13 [1]; dose 25 mg/kg): 39% (25)

Compound: COc1ccc(S(=O)(=O)N(Cc2cccnc2)c2c(C(=O)NO)cnc3snc(C)c23)cc1 (as salt: salt) [Example 86, 4-[(4-Methoxybenzenesulfonyl)pyridin-3-ylmethylamino]-3-methylisothiazolo[5,4-b]pyridine-5-carboxylic Acid, Hydroxyamide]
melting point: 224 °C (dec.)
